From PMC7692337, “Masked Phenolic-Selenium Conjugates: Potent and Selective Antiproliferative Agents Overcoming P-gp Resistance” (Pharmaceuticals, 2020)

System: WiDr (colon)
Experiment: Antiproliferative activity, NCI protocol
Format: cell-based, human
Conditions: Homo sapiens, WiDr, read-out: GI50 WiDr (Colon)
Experimental: (§1) Organochalcogen derivatives prepared herein were evaluated in vitro as potential antiproliferative agents, using a panel of six human tumour cell lines: A549 (non-small cell lung), HBL-100 (breast), HeLa (cervix), SW1573 (non-small cell lung), as drug sensitive lines, T-47D (breast) and WiDr (colon) as drug resistant lines. In addition to precursors 2, 6, 7, 13, 14, 17, 19, ebselen and cisplatin (CDDP) were used as reference drugs. […] In both cases, the NCI protocol, with minor modifications, was followed; selected data, including the selectivity index (S.I.) can be found in Table 3 and full data in Supporting Information (Table S1).
(§2) The in vitro antiproliferative activity was assayed using minor modifications of the protocol of the National Cancer Institute (NCI) of the United States against the six human solid tumor cell and the non-tumor cell lines tested.

Row | Structure (SMILES) | GI50 [µM]
1 | N#C[Se]CCC(=O)NCCc1ccc(O)c(O)c1 [Compound 20, N-[2′-(3′’,4′’-Dihydroxyphenyl)ethyl]-3-selenocyanatopropanamide] | 41 ± 10

Same assay, conditions: Homo sapiens, WiDr; drug resistant line; read-out: GI50 WiDr (Colon)

Row | Structure (SMILES) | GI50 [µM]
2 | O=C(CSSCC(=O)NCCc1ccc(O)c(O)c1)NCCc1ccc(O)c(O)c1 [Compound 8, 2,2′-Dithiobis{N-[2′’-(3′’’,4′’’-dihydroxyphenyl)ethyl]acetamide}] | > 100

System: SW1573 (non-small cell lung)
Experiment: Antiproliferative activity, NCI protocol
Format: cell-based, human
Conditions: Homo sapiens, SW1573, read-out: GI50 SW1573 (Lung)
Experimental: as §1, §2

Row | Structure (SMILES) | GI50 [µM]
3 | N#C[Se]CCC(=O)NCCc1ccc(O)c(O)c1 [Compound 20, N-[2′-(3′’,4′’-Dihydroxyphenyl)ethyl]-3-selenocyanatopropanamide] | 24 ± 8

Same assay, conditions: Homo sapiens, SW1573; Table S1; read-out: GI50 SW1573 (Lung)

Row | Structure (SMILES) | GI50 [µM]
4 | O=C(CSSCC(=O)NCCc1ccc(O)c(O)c1)NCCc1ccc(O)c(O)c1 [Compound 8, 2,2′-Dithiobis{N-[2′’-(3′’’,4′’’-dihydroxyphenyl)ethyl]acetamide}] | > 100

System: HBL-100 (breast)
Experiment: Antiproliferative activity, NCI protocol
Format: cell-based, human
Conditions: Homo sapiens, HBL-100, read-out: GI50 HBL-100 (Breast)
Experimental: as §1, §2

Row | Structure (SMILES) | GI50 [µM]
5 | N#C[Se]CCC(=O)NCCc1ccc(O)c(O)c1 [Compound 20, N-[2′-(3′’,4′’-Dihydroxyphenyl)ethyl]-3-selenocyanatopropanamide] | 37 ± 2

Same assay, conditions: Homo sapiens, HBL-100; read-out: GI50 HBL-100 (Breast)

Row | Structure (SMILES) | GI50 [µM]
6 | O=C(CSSCC(=O)NCCc1ccc(O)c(O)c1)NCCc1ccc(O)c(O)c1 [Compound 8, 2,2′-Dithiobis{N-[2′’-(3′’’,4′’’-dihydroxyphenyl)ethyl]acetamide}] | > 100

System: T-47D (breast)
Experiment: Antiproliferative activity, NCI protocol
Format: cell-based, human
Conditions: Homo sapiens, T47D, read-out: GI50 T-47D (Breast)
Experimental: as §1, §2

Row | Structure (SMILES) | GI50 [µM]
7 | N#C[Se]CCC(=O)NCCc1ccc(O)c(O)c1 [Compound 20, N-[2′-(3′’,4′’-Dihydroxyphenyl)ethyl]-3-selenocyanatopropanamide] | 35 ± 1

Same assay, conditions: Homo sapiens, T47D; drug resistant line; read-out: GI50 T-47D (Breast)

Row | Structure (SMILES) | GI50 [µM]
8 | O=C(CSSCC(=O)NCCc1ccc(O)c(O)c1)NCCc1ccc(O)c(O)c1 [Compound 8, 2,2′-Dithiobis{N-[2′’-(3′’’,4′’’-dihydroxyphenyl)ethyl]acetamide}] | > 100

System: A549 (non-small cell lung)
Experiment: Antiproliferative activity, NCI protocol
Format: cell-based, human
Conditions: Homo sapiens, A549, read-out: GI50 A549 (Lung)
Experimental: as §1, §2

Row | Structure (SMILES) | GI50 [µM]
9 | N#C[Se]CCC(=O)NCCc1ccc(O)c(O)c1 [Compound 20, N-[2′-(3′’,4′’-Dihydroxyphenyl)ethyl]-3-selenocyanatopropanamide] | 28 ± 8

Same assay, conditions: Homo sapiens, A549; read-out: GI50 A549 (Lung)

Row | Structure (SMILES) | GI50 [µM]
10 | O=C(CSSCC(=O)NCCc1ccc(O)c(O)c1)NCCc1ccc(O)c(O)c1 [Compound 8, 2,2′-Dithiobis{N-[2′’-(3′’’,4′’’-dihydroxyphenyl)ethyl]acetamide}] | > 100

System: HeLa (cervix)
Experiment: Antiproliferative activity, NCI protocol
Format: cell-based, human
Conditions: Homo sapiens, HeLa, read-out: GI50 HeLa (Cervix)
Experimental: as §1, §2

Row | Structure (SMILES) | GI50 [µM]
11 | N#C[Se]CCC(=O)NCCc1ccc(O)c(O)c1 [Compound 20, N-[2′-(3′’,4′’-Dihydroxyphenyl)ethyl]-3-selenocyanatopropanamide] | 19 ± 8

Same assay, conditions: Homo sapiens, HeLa; read-out: GI50 HeLa (Cervix)

Row | Structure (SMILES) | GI50 [µM]
12 | O=C(CSSCC(=O)NCCc1ccc(O)c(O)c1)NCCc1ccc(O)c(O)c1 [Compound 8, 2,2′-Dithiobis{N-[2′’-(3′’’,4′’’-dihydroxyphenyl)ethyl]acetamide}] | > 100

System: six human tumour cell lines (A549, HBL-100, HeLa, SW1573, T-47D, WiDr)
Experiment: Antiproliferative activity, panel of six human tumour cell lines
Format: cell-based
Conditions: summary over the tested tumour cell lines; highest tested concentration 100 µM
Experimental: as §1, §2

Row | Structure (SMILES) | GI50 over the tumour cell lines (range, bound or words)
13 | O=C(CSSCC(=O)NCCc1ccc(O)c(O)c1)NCCc1ccc(O)c(O)c1 [Compound 8, 2,2′-Dithiobis{N-[2′’-(3′’’,4′’’-dihydroxyphenyl)ethyl]acetamide}] | negligible activities
14 | N#C[Se]CCC(=O)NCCc1ccc(O)c(O)c1 [Compound 20, N-[2′-(3′’,4′’-Dihydroxyphenyl)ethyl]-3-selenocyanatopropanamide] | moderate antiproliferative properties

System: not listed separately
Experiment: H2O2 scavenging (phenol red / horseradish peroxidase)
Conditions: At 50 µM
Experimental: (§3) In vitro antioxidant properties of key unprotected phenolic derivatives were analyzed using two different methodologies: free radical scavenging capacity, using the DPPH method (2,2-diphenyl-1-picrylhydrazyl), a HAT (hydrogen atom transfer) procedure, widely-used for both natural and synthetic derivatives, and also the capacity for scavenging H2O2, one of the most common ROS in degenerative diseases, including cancer.
Herein, following Bahorun’s methodology, in vitro levels of H2O2 were measured in an indirect fashion, by registering the H2O2-mediated oxidation of phenol red in the presence of horseradish peroxidase, to give a chromophore with a maximum absorption at 610 nm. Accordingly, in the presence of an antioxidant agent, there is an inverse correlation between the observed absorbance, and the scavenging properties. Table 2 depicts the H2O2-scavenging properties of compounds prepared herein, and tested at a final 50 µM concentration.
Reported methodology was used with minor modifications.

Row | Structure (SMILES) | % Scavenging of H2O2 [%]
15 | O=C(CSSCC(=O)NCCc1ccc(O)c(O)c1)NCCc1ccc(O)c(O)c1 [Compound 8, 2,2′-Dithiobis{N-[2′’-(3′’’,4′’’-dihydroxyphenyl)ethyl]acetamide}] | 26.5 ± 2.1
16 | N#C[Se]CCC(=O)NCCc1ccc(O)c(O)c1 [Compound 20, N-[2′-(3′’,4′’-Dihydroxyphenyl)ethyl]-3-selenocyanatopropanamide] | 25.8 ± 1.0

System: not listed separately
Experiment: Free radical scavenging (DPPH method)
Conditions: 30 min incubation, absorbance at 515 nm, read-out: EC50 antiradical activity (DPPH)
Experimental: as §3
DPPH is a commercially-available stable free radical commonly used for in vitro testing of radical scavenging properties of antioxidants.
Reported methodology was used with minor modifications. To a 60 µM methanolic DPPH solution (1.17 mL), the antioxidant solution (5–7 different solutions, 30 µL) or solvent (control, 30 µL) were added. After 30 min. of incubation in the dark, absorbance was measured at 515 nm, and EC50 values were calculated.

Row | Structure (SMILES) | EC50 [µM]
17 | O=C(CSSCC(=O)NCCc1ccc(O)c(O)c1)NCCc1ccc(O)c(O)c1 [Compound 8, 2,2′-Dithiobis{N-[2′’-(3′’’,4′’’-dihydroxyphenyl)ethyl]acetamide}] | 12.3 ± 0.5
18 | N#C[Se]CCC(=O)NCCc1ccc(O)c(O)c1 [Compound 20, N-[2′-(3′’,4′’-Dihydroxyphenyl)ethyl]-3-selenocyanatopropanamide] | 10.8 ± 0.4
